Results published in article PMC9343080, “Distribution- and Metabolism-Based Drug Discovery: A Potassium-Competitive Acid Blocker as a Proof of Concept” (Research, 2022).

Assay: Metabolite identification and profiling in human hepatocytes
Format: in vitro ADME
Conditions: SH-337, human hepatocytes, 120 min incubation
Method: SH-337 was incubated with rat or human hepatocytes at a concentration of 1.0 × 10^6 cells/mL for 60 min or 120 min (rat 60 min, human 120 min) at 37°C in a CO2 incubator. The samples were precipitated with acetonitrile at 1 : 2 and further centrifuged; the supernatants were dried with a stream of N2 gas. The residues were reconstituted with 300 μL of 10% acetonitrile/H2O (0.1% TFA) and analyzed by LC-MS/MS. The assays were pursued under the conditions provided in Supplementary Tables S5–S8.

With `CNCc1cc(-c2ccc(OCC3CC3)cc2F)n(S(=O)(=O)c2cccnc2)c1.Cl.Cl` [SH-337, 1-(5-(4-(cyclopropylmethoxy)-2-fluorophenyl)-1-(pyridin-3-ylsulfonyl)-1H-pyrrol-3-yl)-N-methylmethanamine dihydrochloride] as the compound, how does the “Relative peak area, Hheps” value read?
Its value is 76.5%.
